Experimental data: patent US9937262B2 (priority 2013, dated 2018)
Values after ≈ are worked out from the molar mass of the structure shown. Like-named read-outs stand apart in the source and are kept apart here.

How the values were obtained:
[1] = Stability (cleavage to parent drug) of prodrug suspensions in PBS pH 7.4; format: physicochemical; conditions: for estimated pseudo first-order rate constant (khyd) for cleavage: PBS pH 7.4, 37° C., calculated from k0 and Sprodrug; for apparent pseudo-zero-order rate constant (k0): appearance of parent drug from suspension in PBS pH 7.4, 37° C.
Experimental: Suspensions of the prodrugs in 67 mM phosphate buffer pH 7.4 (PBS) were prepared by adding 10 mL PBS to approximately 5 mg prodrug. The suspensions were kept unstirred at 37° C. in an incubator hood. At appropriate time intervals over 23 days, about 500 μL samples were taken and after filtration (disposable syringe filters), the solutions were analyzed immediately by HPLC for parent drug and remaining prodrug. Quantitation of parent drug and prodrug was done from peak area measurements in relations to those of standards analysed by HPLC at the same conditions. […] Reversed phase chromatography was performed using a C18 Gemini® RP column (150×4.6 mm, 5 μm particles) (Phenomenex, Torrance, Calif., USA) equipped with a SecurityGuard precolumn (Phenomenex, Torrance, Calif., USA). The flow rate was set at 1 mL/min and the column effluent was monitored at 230 nm. The mobile phase consisted of 35% (v/v) acetonitrile and 65% (v/v) of 0.1% (v/v) phosphoric acid pH 3.2. The retention times varied in the range of 3 to 30 min.
From the observed relatively stable concentration of dissolved prodrugs measured in the suspensions after 8-9 day up to 23 days, the solubilities of the prodrugs (Sprodrug) were determined. In this time interval, the rate of appearance of parent drug was determined and an apparent pseudo-zero-order rate constant (k0) was obtained. By assuming that the dissolution rates were much faster than the conversion of the prodrugs to the parent drug, pseudo first-order rate constants (khyd) for cleavage of the prodrugs were calculated according to:

[2] = Solubility of the prodrugs in PBS (67 mM phosphate buffer pH 7.4) at 37° C.; format: physicochemical; conditions: 67 mM phosphate buffer pH 7.4 (PBS), aqueous buffer, thermodynamic from solid, read-out: Sprodrug ± SD
Experimental: The determination of the solubility of a prodrug at different pH values of interest according to the present invention is carried by adding excess solid prodrug to a container containing a buffer solution with well-defined pH. The mixture is rotated at constant temperature until an equilibrium between solid prodrug and prodrug in solution has established (that is until the prodrug concentration in the supernatant remains constant). At each measurement the pH of the supernatant is controlled and eventually adjusted to the desired pH.
Suspensions of the prodrugs in 67 mM phosphate buffer pH 7.4 (PBS) were prepared by adding 10 mL PBS to approximately 5 mg prodrug. The suspensions were kept unstirred at 37° C. in an incubator hood. At appropriate time intervals over 23 days, about 500 μL samples were taken and after filtration (disposable syringe filters), the solutions were analyzed immediately by HPLC for parent drug and remaining prodrug. Quantitation of parent drug and prodrug was done from peak area measurements in relations to those of standards analysed by HPLC at the same conditions. […] The flow rate was set at 1 mL/min and the column effluent was monitored at 230 nm. […]
From the observed relatively stable concentration of dissolved prodrugs measured in the suspensions after 8-9 day up to 23 days, the solubilities of the prodrugs (Sprodrug) were determined. […]

[3] = Solubility of DPX-2-0006 at pH 3 in the presence of N,N-dimethyl acetamide (DMA); format: physicochemical; conditions: aqueous with cosolvent or surfactant or cyclodextrin, thermodynamic from solid, acidic suspension (pH 3), 37° C.
Experimental: A suspension of DPX-2-0006 was formed by adding 10 mg to 3 mL demineralized water, 0.05 mL 0.100 M HCl was added to obtain a pH of 3. After rotation of the suspension at 37° C. for 1 days, 0.5 mL sample was taken and after filtration (disposable syringe filters), the solution was diluted in methanol:water 1:1 and analyzed immediately by HPLC for prodrug. […] The HPLC method described in Example 29 was applied and the retention time of DPX-2-0006 was 14 min, respectively. N,N-dimethylacetamide (DMA) was added stepwise to the acidic suspension of DPX-2-0006 and the amount of DPX-2-0006 dissolved in the presence of various volumes of DMA was determined after 1-3 days rotation at 37° C. as described above.

[4] = human
Experimental: At 37±0.5° C., the hydrolysis rate of the prodrugs was measured in 80% human plasma. An appropriate aliquot (20-100 μL) of 1 mg/ml prodrug solution in methanol was transferred to 5.0 ml of preheated plasma. At appropriate time intervals, 300 μl sample aliquots were withdrawn and transferred to 600 μl acetonitrile and mixed thoroughly. After centrifugation at 13500 rpm for 5 min, the supernatant was analyzed by HPLC for parent drug and remaining prodrug.

[5] = Precipitation on addition of acidic prodrug solution to 67 mM phosphate buffer pH 7.4; format: physicochemical; conditions: 1.0 mL concentrated aqueous solution pH 3.4 added to 1.0 mL 67 mM phosphate buffer pH 7.4
Experimental: The pH in the suspension was measured to 7.0.

O=C(Cc1ccccc1Nc1c(Cl)cccc1Cl)OCCc1ccccn1 [DPX-1-0004, 2-(pyridin-2-yl)ethyl 2-(2-((2,6-dichlorophenyl)amino)phenyl)acetate]
estimated pseudo first-order rate constant (khyd) for cleavage [1]: 0.15 day⁻¹
apparent pseudo-zero-order rate constant (k0) [1]: 1.1e-06 M/day

COc1ccc2cc(C(C)C(=O)OCCn3cnc4ccccc43)ccc2c1 (stereo not shown) [DPX-2-0006, 2-(1H-benzo[d]imidazol-1-yl)ethyl 2-(6-methoxynaphthalen-2-yl)propanoate]
solubility thermodynamic [2]: 0.005 ± 0.001 mg/mL (≈ 13.4 µM)
estimated pseudo first-order rate constant (khyd) for cleavage [1]: 0.066 day⁻¹
apparent pseudo-zero-order rate constant (k0) [1]: 1e-06 M/day
solubility ([3]; acidified demineralized water with 5% (v/v) DMA, 5% (v/v) DMA, read-out: solubility in the presence of 5% (v/v) DMA): 0.25 mg/mL
solubility ([3]; acidified demineralized water with 15% (v/v) DMA, 15% (v/v) DMA, read-out: solubility in the presence of 15% (v/v) DMA): 0.35 mg/mL
solubility ([3]; acidified demineralized water with 30% (v/v) DMA, 30% (v/v) DMA, read-out: solubility in the presence of 30% (v/v) DMA): 0.57 mg/mL
solubility ([3]; acidified demineralized water with 50% (v/v) DMA, 50% (v/v) DMA, read-out: solubility in the presence of 50% (v/v) DMA): 2.25 mg/mL

COc1ccc2cc(C(C)C(=O)OCCn3ccnc3)ccc2c1 (stereo not shown)
t1/2 in plasma (hydrolysis) [4]: 1.07 h

O=C(Cc1ccccc1Nc1c(Cl)cccc1Cl)OCCn1cnc2ccccc21 [DPX-1-0006, 2-(1H-benzo[d]imidazol-1-yl)ethyl 2-(2-((2,6-dichlorophenyl)amino)phenyl)acetate]
estimated pseudo first-order rate constant (khyd) for cleavage [1]: 0.17 day⁻¹
apparent pseudo-zero-order rate constant (k0) [1]: 2.4e-06 M/day

COc1ccc2cc(C(C)C(=O)OCCn3ccnc3-c3ccccc3)ccc2c1 (stereo not shown) [DPX-2-0007, 2-(2-phenyl-1H-imidazol-1-yl)ethyl 2-(6-methoxynaphthalen-2-yl)propanoate]
estimated pseudo first-order rate constant (khyd) for cleavage [1]: 0.065 day⁻¹
apparent pseudo-zero-order rate constant (k0) [1]: 1e-06 M/day
precipitation on mixing with buffer pH 7.4 [5]: a precipitation was immediately observed

O=C(Cc1ccccc1Nc1c(Cl)cccc1Cl)OCCn1ccnc1-c1ccccc1 [DPX-1-0007, 2-(2-phenyl-1H-imidazol-1-yl)ethyl 2-(2-((2,6-dichlorophenyl)amino)phenyl)acetate]
estimated pseudo first-order rate constant (khyd) for cleavage [1]: 0.0029 day⁻¹
apparent pseudo-zero-order rate constant (k0) [1]: 2.5e-07 M/day

COc1ccc2cc(C(C)C(=O)OCCc3ccccn3)ccc2c1 (stereo not shown) [DPX-2-0004, 2-(pyridin-2-yl)ethyl 2-(6-methoxynaphthalen-2-yl)propanoate]
estimated pseudo first-order rate constant (khyd) for cleavage [1]: 0.033 day⁻¹
apparent pseudo-zero-order rate constant (k0) [1]: 1.7e-06 M/day
